# Data published in patent US4874749A, “4"-Deoxy-4-N-methylamino avermectin Bla/Blb” (Merck & Co., Inc., priority 1987, dated 1989).
# Legend:
# Format in all cases: in vivo
# southern armyworm = test: LD90 test against southern armyworm (micrograms/GWT); details: GWT = Gram Weight of the Test insect
# Text: (§1) For example, tests have been carried out in which the instant compound was compared with avermectin Bla/Blb (avermectin the starting material for the instant compound) and 4"-deoxy-4"-amino avermectin Bla/Blb. […] Expressed another way, 4"-deoxy-4"-amino avermectin Bla/Blb was 60% effective at 0.5 micrograms/GWT against southern armyworm while 4"-deoxy-4"-epi-N-methylamino avermectin Bla/Blb was 90% effective at 0.125 micrograms/GWT against the same parasite.
# tobacco budworm = test: LD90 test against tobacco budworm (micrograms/GWT); details: GWT = Gram Weight of the Test insect
# Text: as §1
# Daphnia magna = test: Acute toxicity to Daphnia magna
# Procedure: In one test of the instant compound (see Example 5) and closely related avermectin compounds against Daphnia magna, described as a 48 hour LC50 test, that is, the concentration of compound which is fatal to 50% of Daphnia magna over a 48 hour period, it was observed that avermectin Bla/Blb has an LC50 of 300 ppt (parts per trillion); and 4"-deoxy-4"-amino avermectin Bla/Blb has an LC50 of 600 ppt.
# Ten Dahpnia magna (first instar less than 24 hours old) were placed in a 250 ml glass beaker containing 200 ml of an aqueous solution of the test compounds in concentrations from 1.0 to 10 microgram/liter (ppb). The test compounds were dissolved in a small volume of acetone for dilution with water. The solvent control contained 0.010 ml of acetone which is equivalent to the highest test concentration. A control and solvent control was added to the experiment which was conducted in two replicates. All concentrations were observed once at 24 and 48 hours for mortality and abnormal effects such as surfacing, clumping of the daphnids together and daphnids lying on the bottom of the beakers.
# [1] = test system: Spodoptera eridania larvae; test: Foliar ingestion toxicity study against Spodoptera eridania larvae
# [2] = test system: Heliothis virescens larvae; test: Foliar ingestion toxicity study against Heliothis virescens larvae
# Heliothis zea larvae [3] = test: Foliar ingestion toxicity against Heliothis zea larvae
# [4] = test system: Spodoptera eridania larvae; test: Contact toxicity study against Spodoptera eridania larvae; details: 96 hours, in microgram per gram body weight (BTI 159)
# Procedure: In a contact toxicity study against Spodoptera eridania larvae 4"-deoxy-4"-epimethylamino avermectin Bla/Blb was 4 times more toxic than 4"-deoxy-4"-epiamino avermectin Bla/Blb as measured at 96 hours in microgram per gram body weight. (BTI 159).
# [5] = test system: Heliothis virescens larvae; test: Contact toxicity study against Heliothis virescens larvae
# Heliothis zea larvae [6] = test: Contact toxicity study against Heliothis zea larvae; details: 96 hours
# [7] = test system: Rainbow Trout (Salmo gairdneri); test: Acute toxicity to Rainbow Trout, static fish bioassay
# Procedure: The static fish bioassay was conducted in five gallon glass vessels containing 15 liters of soft reconstituted water composed of the following compounds in the amounts stated per liter of deionized water:
# This reconstituted water was prepared to yield a total hardness of 40-48 mg/l as CaCO3, a total alkalinity of 20-30 mg/l as CaCO3 and an initial pH of 7.2 to 7.6. The 0-hour measured control water parameters of this dilution water were dissolved oxygen 9.7 mg/l and pH 7.4.
# The test vessels were kept in a water bath at 12° C. The test fish were acclimated to the dilution water and test temperature and held without food for 48-96 hours prior to testing.
# Based on the results of preliminary testing, six concentrations of the test compound with ten fish per concentration were selected for the definitive bioassay. The definitive test concentrations were obtained by transferring appropriate aliquots of a working standard directly to the test chambers. The working standard was prepared in dimethylformamide (DMF). Also included was a dilution water control and a solvent control chamber.
# The fish were added to the test chambers by random assignment within 30 minutes after addition of test material. All test organisms were observed once every 24 hours for mortality and abnormal (sub-lethal) effects. any dead individuals were removed from the test chambers after each 24-hour observation. The LC50 statistic and its 95 percent confidence limits were calculated by employing a computerized standard program.
# [8] = test system: Bluegill Sunfish (Lepomis macrochirus); test: Acute toxicity to Bluegill Sunfish
# Procedure: The same test procedure was used as described in example 6, except that Bluegill Sunfish were used and that the test vessels were kept in a water bath at 22° C.
# [9] = 48 hour, ppt = parts per trillion
# [10] = 0.04 microgram/gram body weight
# [11] = 24 hr, nominal concentration 0.056 mg/l
# [12] = 24 hr, nominal concentration 0.10 mg/l
# [13] = 24 hr, nominal concentration 0.18 mg/l
# [14] = 24 hr, nominal concentration 0.32 mg/l
# [15] = 24 hr, nominal concentration 0.56 mg/l
# [16] = 24 hr, nominal concentration 1.0 mg/l
# [17] = 48 hr, nominal concentration 0.056 mg/l
# [18] = 48 hr, nominal concentration 0.10 mg/l
# [19] = 48 hr, nominal concentration 0.18 mg/l
# [20] = 48 hr, nominal concentration 0.32 mg/l
# [21] = 48 hr, nominal concentration 0.56 mg/l
# [22] = 48 hr, nominal concentration 1.0 mg/l
# [23] = 96 hr, nominal concentration 0.056 mg/l
# [24] = 96 hr, nominal concentration 0.10 mg/l
# [25] = 96 hr, nominal concentration 0.18 mg/l
# [26] = 96 hr, nominal concentration 0.32 mg/l
# [27] = 96 hr, nominal concentration 0.56 mg/l
# [28] = 96 hr, nominal concentration 1.0 mg/l
substance,measurement,setting,value
"4""-Deoxy-4""-epi-methylaminoavermectin Bla/Blb",LD90 (Lethal Dose for 90% of the insects),southern armyworm,0.542 micrograms/GWT
same,LD90 (Lethal Dose for 90% of the insects),tobacco budworm,0.4 micrograms/GWT
same,Percent Mortality,"Daphnia magna; 24 hr, nominal concentration 1.0 microgram/l",0%
same,Percent Mortality,"Daphnia magna; 24 hr, nominal concentration 1.8 microgram/l",0%
same,Percent Mortality,"Daphnia magna; 24 hr, nominal concentration 3.2 microgram/l",20%
same,Percent Mortality,"Daphnia magna; 24 hr, nominal concentration 5.6 microgram/l",30%
same,Percent Mortality,"Daphnia magna; 24 hr, nominal concentration 10.0 microgram/l",90%
same,"times less toxic than the 4""-amino compound","Daphnia magna; 48 hour LC50, vs 4""-deoxy-4""-amino avermectin Bla/Blb",~5 times
same,times less toxic than the avermectin Bla/Blb compound,"Daphnia magna; 48 hour LC50, vs avermectin Bla/Blb",~10 times
same,LC50,Daphnia magna; [9],2900 ppt
same,LC50,Daphnia magna; 48 hours,2.9 micrograms/l
same,Percent Mortality,"Daphnia magna; 48 hr, nominal concentration 1.0 microgram/l",0%
same,Percent Mortality,"Daphnia magna; 48 hr, nominal concentration 1.8 microgram/l",5%
same,Percent Mortality,"Daphnia magna; 48 hr, nominal concentration 3.2 microgram/l",70%
same,Percent Mortality,"Daphnia magna; 48 hr, nominal concentration 5.6 microgram/l",95%
same,Percent Mortality,"Daphnia magna; 48 hr, nominal concentration 10.0 microgram/l",100%
same,LC90 (lethal concentration for 90% of the insects),[1],0.005 ppm
same,times more toxic than avermectin Bla/Blb (LC90),[1],1166 times
same,LC90,[2],0.003 ppm
same,times more toxic than avermectin Bla/Blb (LC90),[2],43 times
same,LC90,Heliothis zea larvae [3],0.002 ppm
same,times more toxic than avermectin Bla/Blb (LC90),Heliothis zea larvae [3],105 times
same,"times more toxic than 4""-deoxy-4""-epiamino avermectin Bla/Blb",[4],4 times
same,mortality,[5]; 0.1 microgram/g body weight,25%
same,mortality,[5]; 0.4 microgram/g body weight,100%
same,mortality,Heliothis zea larvae [6]; [10],20%
same,mortality,Heliothis zea larvae [6]; 0.4 microgram/g body weight,100%
same,mortality,Heliothis zea larvae [6]; 4.0 microgram/gram body weight,100%
same,LC50,[7]; 24 hours,> 1.0 milligrams/liter (ppm)
same,Percent Mortality,[7]; [11],0%
same,Percent Mortality,[7]; [12],0%
same,Percent Mortality,[7]; [13],0%
same,Percent Mortality,[7]; [14],0%
same,Percent Mortality,[7]; [15],0%
same,Percent Mortality,[7]; [16],0%
same,LC50,[7]; 48 hours,> 1.0 milligrams/liter (ppm)
same,Percent Mortality,[7]; [17],0%
same,Percent Mortality,[7]; [18],0%
same,Percent Mortality,[7]; [19],0%
same,Percent Mortality,[7]; [20],0%
same,Percent Mortality,[7]; [21],0%
same,Percent Mortality,[7]; [22],0%
same,LC50,[7]; 96 hours,0.67 milligrams/liter (ppm)
same,Percent Mortality,[7]; [23],0%
same,Percent Mortality,[7]; [24],0%
same,Percent Mortality,[7]; [25],0%
same,Percent Mortality,[7]; [26],0%
same,Percent Mortality,[7]; [27],20%
same,Percent Mortality,[7]; [28],100%
same,LC50,[8]; 24 hours,0.75 milligrams/liter (ppm)
same,Percent Mortality,[8]; [11],0%
same,Percent Mortality,[8]; [12],0%
same,Percent Mortality,[8]; [13],0%
same,Percent Mortality,[8]; [14],0%
same,Percent Mortality,[8]; [15],0%
same,Percent Mortality,[8]; [16],100%
same,LC50,[8]; 48 hours,0.45 milligrams/liter (ppm)
same,Percent Mortality,[8]; [17],0%
same,Percent Mortality,[8]; [18],0%
same,Percent Mortality,[8]; [19],0%
same,Percent Mortality,[8]; [20],0%
same,Percent Mortality,[8]; [21],90%
same,Percent Mortality,[8]; [22],100%
same,LC50,[8]; 96 hours,0.24 milligrams/liter (ppm)
same,Percent Mortality,[8]; [23],0%
same,Percent Mortality,[8]; [24],0%
same,Percent Mortality,[8]; [25],0%
same,Percent Mortality,[8]; [26],100%
same,Percent Mortality,[8]; [27],100%
same,Percent Mortality,[8]; [28],100%
"4""-deoxy-4""-amino avermectin Bla/Blb [reference compound]",LD90 (Lethal Dose for 90% of the insects),southern armyworm,3.4 micrograms/GWT
same,LD90 (Lethal Dose for 90% of the insects),tobacco budworm,1.3 micrograms/GWT
same,LC50,Daphnia magna; [9],600 ppt
same,LC50,Daphnia magna; 48 hours,0.6 micrograms/l
"4""-deoxy-4""-epiamino avermectin Bla/Blb [reference compound]",mortality,[5]; 0.1 microgram/g body weight,5%
same,mortality,[5]; 0.4 microgram/g body weight,30%
same,mortality,Heliothis zea larvae [6]; [10],0%
same,mortality,Heliothis zea larvae [6]; 0.4 microgram/g body weight,90%
same,mortality,Heliothis zea larvae [6]; 4.0 microgram/gram body weight,100%
avermectin Bla/Blb [reference compound],LD90 (Lethal Dose for 90% of the insects),southern armyworm,> 34.0 micrograms/GWT
same,LD90 (Lethal Dose for 90% of the insects),tobacco budworm,> 1.3 micrograms/GWT
same,LC50,Daphnia magna; [9],300 ppt
same,LC50,Daphnia magna; 48 hours,0.34 micrograms/l
same,LC90 (lethal concentration for 90% of the insects),[1],5.83 ppm
same,LC90,[2],0.128 ppm
same,LC90,Heliothis zea larvae [3],0.21 ppm
same,LC50,[7]; 24 hours,> 0.006 milligrams/liter (ppm)
same,LC50,[7]; 48 hours,0.0046 milligrams/liter (ppm)
same,LC50,[7]; 96 hours,0.0032 milligrams/liter (ppm)
same,LC50,[8]; 24 hours,0.029 milligrams/liter (ppm)
same,LC50,[8]; 48 hours,0.019 milligrams/liter (ppm)
same,LC50,[8]; 96 hours,0.0096 milligrams/liter (ppm)
